target: T1, ΔF508-CFTR (Homo sapiens, UniProt P13569, DEL508-508); test: Membrane potential optical assay (FRET voltage-sensor dyes, VIPR), identification of potentiator compounds; assay type: cell-based; settings: Table 3; assay not given; read-out: % Activity (% Efficacy, relative efficacy)
T1 construct: expressed in transfected cells
Summary of the method: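 Potentiator screen measured membrane potential via FRET between CC2-DMPE donor and DiSBAC2(3), read on VIPR II. Compound went in with the first addition of chloride-free gluconate bath; cells were ΔF508-CFTR-expressing NIH3T3 mouse fibroblasts, temperature-corrected at 27 °C for 24 h.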

T1 sequence (P13569 with tags, fused parts or gaps DEL508-508): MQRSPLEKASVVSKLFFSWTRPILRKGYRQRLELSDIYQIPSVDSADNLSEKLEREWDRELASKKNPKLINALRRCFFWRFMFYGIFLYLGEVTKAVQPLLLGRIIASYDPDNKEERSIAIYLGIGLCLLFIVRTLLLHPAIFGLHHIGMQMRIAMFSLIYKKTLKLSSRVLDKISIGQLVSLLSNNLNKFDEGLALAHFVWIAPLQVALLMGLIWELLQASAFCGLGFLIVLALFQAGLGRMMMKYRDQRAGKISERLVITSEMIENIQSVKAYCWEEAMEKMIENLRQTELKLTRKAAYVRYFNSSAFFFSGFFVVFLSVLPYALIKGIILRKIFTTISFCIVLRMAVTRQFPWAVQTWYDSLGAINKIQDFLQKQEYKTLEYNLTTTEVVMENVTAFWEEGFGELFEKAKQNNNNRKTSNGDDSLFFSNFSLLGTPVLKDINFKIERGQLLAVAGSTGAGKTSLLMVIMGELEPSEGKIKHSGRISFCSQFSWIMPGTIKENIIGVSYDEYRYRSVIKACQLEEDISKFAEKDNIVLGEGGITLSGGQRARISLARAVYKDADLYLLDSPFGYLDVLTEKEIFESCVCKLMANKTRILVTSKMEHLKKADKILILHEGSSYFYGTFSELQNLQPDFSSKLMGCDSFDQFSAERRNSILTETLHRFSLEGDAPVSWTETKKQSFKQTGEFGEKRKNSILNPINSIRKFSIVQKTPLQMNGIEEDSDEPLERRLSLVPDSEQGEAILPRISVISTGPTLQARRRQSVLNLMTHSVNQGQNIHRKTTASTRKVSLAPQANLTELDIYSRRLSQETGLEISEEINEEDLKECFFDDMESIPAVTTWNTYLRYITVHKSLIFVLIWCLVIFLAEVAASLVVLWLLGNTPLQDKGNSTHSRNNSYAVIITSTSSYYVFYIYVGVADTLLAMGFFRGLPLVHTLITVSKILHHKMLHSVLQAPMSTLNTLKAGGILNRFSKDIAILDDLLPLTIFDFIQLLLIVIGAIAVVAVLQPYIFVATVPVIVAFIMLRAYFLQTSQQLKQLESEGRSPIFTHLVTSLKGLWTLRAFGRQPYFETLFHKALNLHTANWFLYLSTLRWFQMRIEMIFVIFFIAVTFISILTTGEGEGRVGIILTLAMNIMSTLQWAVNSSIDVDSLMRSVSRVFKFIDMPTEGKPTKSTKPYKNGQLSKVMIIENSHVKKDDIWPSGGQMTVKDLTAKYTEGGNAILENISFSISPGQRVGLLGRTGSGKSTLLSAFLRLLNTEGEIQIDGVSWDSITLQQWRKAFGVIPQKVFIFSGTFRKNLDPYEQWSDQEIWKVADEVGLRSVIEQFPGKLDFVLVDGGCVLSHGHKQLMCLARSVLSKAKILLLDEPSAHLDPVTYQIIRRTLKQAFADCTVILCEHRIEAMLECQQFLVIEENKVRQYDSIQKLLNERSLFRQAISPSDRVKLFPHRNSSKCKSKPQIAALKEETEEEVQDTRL

| Compound | Emax [%] |
| --- | --- |
| O=C(Nc1ccccc1-c1ccccn1)c1c[nH]c2ccccc2c1=O [Compound 692, 4-oxo-N-[2-(2-pyridyl)phenyl]-1H-quinoline-3-carboxamide] | 25 to 100 |
| O=C(Nc1ccc2cc(C(F)(F)F)[nH]c2c1)c1c[nH]c2cccc(O)c2c1=O [Compound 693, 5-hydroxy-4-oxo-N-[2-(trifluoromethyl)-1H-indol-6-yl]-1H-quinoline-3-carboxamide] | 25 to 100 |
| CC(C)(C)c1cc(C(C)(C)C)c(NC(=O)c2c[nH]c3cc(OC(F)(F)F)ccc3c2=O)cc1O [Compound 694, N-(5-hydroxy-2,4-ditert-butyl-phenyl)-4-oxo-7-(trifluoromethoxy)-1H-quinoline-3-carboxamide] | 25 to 100 |
| O=C(Nc1cc(O)c(Cl)cc1F)c1c[nH]c2ccccc2c1=O [Compound 695, N-(4-chloro-2-fluoro-5-hydroxy-phenyl)-4-oxo-1H-quinoline-3-carboxamide] | 25 to 100 |
| O=C(Nc1ccc(OC(F)(F)F)c(N2CCCCC2)c1)c1c[nH]c2ccccc2c1=O [Compound 696, 4-oxo-N-[3-(1-piperidyl)-4-(trifluoromethoxy)phenyl]-1H-quinoline-3-carboxamide] | 25 to 100 |
| Cc1cccc2[nH]cc(C(=O)Nc3ccc(N4CCC[C@H]4C)cc3C(F)(F)F)c(=O)c12 [Compound 697, (R)-5-methyl-N-(4-(2-methylpyrrolidin-1-yl)-2-(trifluoromethyl)phenyl)-4-oxo-1,4-dihydroquinoline-3-carboxamide] | 25 to 100 |
| O=C(Nc1ccc(N2CCC[C@@H]2C(=O)O)cc1C(F)(F)F)c1c[nH]c2ccccc2c1=O [Compound 698, (R)-1-[4-[(4-oxo-1H-quinolin-3-yl)carbonylamino]-3-(trifluoromethyl)phenyl]pyrrolidine-2-carboxylic acid] | 25 to 100 |
| O=C(Nc1ccc(C(F)(F)F)c(O)c1)c1c[nH]c2cccc(O)c2c1=O [Compound 700, 5-hydroxy-N-[3-hydroxy-4-(trifluoromethyl)phenyl]-4-oxo-1H-quinoline-3-carboxamide] | 25 to 100 |
| Cc1cccc2[nH]cc(C(=O)Nc3ccc(OC(C)C)c(O)c3)c(=O)c12 [Compound 701, N-(3-hydroxy-4-isopropoxy-phenyl)-5-methyl-4-oxo-1H-quinoline-3-carboxamide] | 25 to 100 |
| CC(C)(C)c1cc(C(C)(C)C)c(NC(=O)c2c[nH]c3ccc(O)cc3c2=O)cc1O [Compound 702, 6-hydroxy-N-(5-hydroxy-2,4-ditert-butyl-phenyl)-4-oxo-1H-quinoline-3-carboxamide] | 25 to 100 |
| Cc1ccc2c(=O)c(C(=O)Nc3cc4[nH]ccc4cc3C(C)(C)C)c[nH]c2c1 [Compound 704, 7-methyl-4-oxo-N-(5-tert-butyl-1H-indol-6-yl)-1H-quinoline-3-carboxamide] | 25 to 100 |
| O=C(Nc1ccc(N2CC[C@@H](O)C2)cc1C(F)(F)F)c1c[nH]c2ccccc2c1=O [Compound 705, (R)-N-(4-(3-hydroxypyrrolidin-1-yl)-2-(trifluoromethyl)phenyl)-4-oxo-1,4-dihydroquinoline-3-carboxamide] | 25 to 100 |
| CC1(c2cc(F)c(NC(=O)c3c[nH]c4cccc(C(F)(F)F)c4c3=O)cc2O)CCCCC1 [Compound 706, N-[2-fluoro-5-hydroxy-4-(1-methylcyclohexyl)-phenyl]-4-oxo-5-(trifluoromethyl)-1H-quinoline-3-carboxamide] | > 100 |
| CC(C)(C)c1ccc(NC(=O)c2c[nH]c3ccccc3c2=O)cc1N1CCCC1 [Compound 707, 4-oxo-N-(3-pyrrolidin-1-yl-4-tert-butyl-phenyl)-1H-quinoline-3-carboxamide] | 25 to 100 |
| O=C(Nc1csc(C(F)(F)F)c1-c1ccccc1)c1c[nH]c2ccccc2c1=O [Compound 708, 4-oxo-N-[4-phenyl-5-(trifluoromethyl)-3-thienyl]-1H-quinoline-3-carboxamide] | 25 to 100 |
| COc1cc2c(=O)c(C(=O)Nc3cc(O)c(C(C)(C)C)cc3C(C)(C)C)c[nH]c2cc1F [Compound 709, 7-fluoro-N-(5-hydroxy-2,4-ditert-butyl-phenyl)-6-methoxy-4-oxo-1H-quinoline-3-carboxamide] | > 100 |
| CN1CCC(C)(C)c2ccc(NC(=O)c3c[nH]c4ccccc4c3=O)cc21 [Compound 710, 4-oxo-N-(1,4,4-trimethyl-2,3-dihydroquinolin-7-yl)-1H-quinoline-3-carboxamide] | 25 to 100 |
| O=C(Nc1cc(C(=O)O)c2cc[nH]c2c1)c1c[nH]c2ccccc2c1=O [Compound 711, 6-[(4-oxo-1H-quinolin-3-yl)carbonylamino]-1H-indole-4-carboxylic acid] | 25 to 100 |
| C[C@H]1CCCCN1c1ccc(NC(=O)c2c[nH]c3ccccc3c2=O)c(C(F)(F)F)c1 [Compound 713, (S)-N-(4-(2-methylpiperidin-1-yl)-2-(trifluoromethyl)phenyl)-4-oxo-1,4-dihydroquinoline-3-carboxamide] | > 100 |
| C[C@H]1CCCN1c1ccc(NC(=O)c2c[nH]c3ccc(F)cc3c2=O)c(C(F)(F)F)c1 [Compound 714, (S)-6-fluoro-N-(4-(2-methylpyrrolidin-1-yl)-2-(trifluoromethyl)phenyl)-4-oxo-1,4-dihydroquinoline-3-carboxamide] | 25 to 100 |
| COC(=O)[C@@H]1CCCCN1c1ccc(NC(=O)c2c[nH]c3ccccc3c2=O)c(C(F)(F)F)c1 [Compound 715, (S)-methyl 1-(4-(4-oxo-1,4-dihydroquinoline-3-carboxamido)-3-(trifluoromethyl)phenyl)piperidine-2-carboxylate] | 25 to 100 |
| O=C(Nc1ccc(C(F)(F)F)c(O)c1)c1c[nH]c2c(Cl)cccc2c1=O [Compound 716, 8-chloro-N-[3-hydroxy-4-(trifluoromethyl)phenyl]-4-oxo-1H-quinoline-3-carboxamide] | 25 to 100 |
| COc1cc(NC(=O)c2c[nH]c3ccccc3c2=O)cc2ccccc12 [Compound 717, N-(4-methoxy-2-naphthyl)-4-oxo-1H-quinoline-3-carboxamide] | 25 to 100 |
| CC(C)(C)c1cc(C(C)(C)C)c(NC(=O)c2c[nH]c3c(F)ccc(F)c3c2=O)cc1O [Compound 718, 5,8-difluoro-N-(5-hydroxy-2,4-ditert-butyl-phenyl)-4-oxo-1H-quinoline-3-carboxamide] | 25 to 100 |
